Experimental findings from BindingDB's records for doi:10.7270/Q2D798VP (Broad Institute, 2009) are described below.

For this assay, the target named is T1, Zinc finger protein mex-5 (Caenorhabditis elegans, UniProt Q9XUB2).
T1 sequence (Q9XUB2 whole entry): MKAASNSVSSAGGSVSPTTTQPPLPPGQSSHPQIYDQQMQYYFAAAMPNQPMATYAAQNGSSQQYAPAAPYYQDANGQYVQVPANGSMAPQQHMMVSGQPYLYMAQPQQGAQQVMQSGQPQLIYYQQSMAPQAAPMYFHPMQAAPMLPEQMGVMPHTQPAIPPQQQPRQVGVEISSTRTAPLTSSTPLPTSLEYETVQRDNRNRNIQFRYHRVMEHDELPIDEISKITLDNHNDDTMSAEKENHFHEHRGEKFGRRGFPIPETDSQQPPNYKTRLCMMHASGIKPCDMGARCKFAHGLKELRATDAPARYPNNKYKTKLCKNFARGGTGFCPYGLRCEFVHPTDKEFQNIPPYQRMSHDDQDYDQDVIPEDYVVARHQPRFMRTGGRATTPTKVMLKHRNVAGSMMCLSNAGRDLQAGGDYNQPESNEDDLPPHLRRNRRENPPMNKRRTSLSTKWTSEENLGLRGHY
Put plainly: MEX-5/TCR-2 RNA interaction inhibitors, dose response, biochemical, C. elegans, fluorescence polarization (AID 1960).
`COc1ccc(C2C(C(=O)c3cccs3)C(=O)C(=O)N2c2nncs2)cc1` (stereo unspecified) gave a concentration giving a half-maximal response (EC50) of 0.1 µM.
In the case of `COc1ccc(C2C(C(C)=O)=C(C)N=c3sc(=Cc4cc(C)n(C)c4C)c(=O)n32)c(OC)c1` (stereo unspecified) it was 21 µM; in that of `N#CC1C(=N)OC2=C(C(=O)CC(c3ccccc3)C2)C1c1ccc2c(c1)OCO2` (stereo unspecified), above 300 µM; in that of `Clc1ccc(C2=Nc3ncnn3C(c3ccco3)C2)cc1` (stereo unspecified), 3.36 µM.
As for `Brc1ccc(C2=Nc3ncnn3C(c3ccco3)C2)cc1` (stereo unspecified), the EC50 is 18.1 µM.
In the case of `CS(=O)(=O)Nc1nc2n(n1)C(c1ccccc1)CC(c1ccc(Br)cc1)=N2` (stereo unspecified) it was 6.39 µM.
As for `COc1ccccc1-n1c(O)c2n(-c3ccc(C)cc3)[nH]c(C(=O)c3ccccc3)c-2c1=O`, the EC50 was 14.3 µM.
Regarding `COc1cc(C2c3c(-c4cccnc4)n[nH]c3OC(=N)C2C#N)cc(Br)c1O` (stereo unspecified), the EC50 was above 300 µM.
Turning to `O=C1N=c2ccccc2=C1NNc1ccc(F)cc1`, the EC50 is above 300 µM.
Regarding `c1ccc(CN=Nc2nc3ccccc3[nH]2)nc1`, it took 41.7 µM to reach a half-maximal effect (EC50).
`Cc1c(C(=O)NN=Cc2ccco2)[nH][nH]c1=O` returned an EC50 above 300 µM.
In the case of `COC1=CC([N+](=O)[O-])=CC(/C=N/NC(=O)CC#N)C1=O` (stereo unspecified) it was above 300 µM; in that of `Cc1ccc(Cl)c2c1NC(=O)/C2=C1/NC(=S)NC1=O`, 0.294 µM.
`Cc1c(C(=O)O)cccc1-n1c(C)cc(CN=Nc2ccc([N+](=O)[O-])cn2)c1C`: the EC50 was found to be 50.2 µM.
For the compound `COc1ccc(OC)c(NC=C2C(=O)NC(=S)N(Cc3ccccc3)C2=O)c1`, the concentration for a half-maximal effect (EC50) was above 300 µM.
In the case of `C[C@H]1c2cccc(O)c2C(=O)C2C(=O)[C@]3(O)C(=O)C(C(N)=O)C(=O)[C@@H](N(C)C)[C@@H]3[C@@H](O)[C@@H]21` (stereo partly specified), a half-maximal response (EC50) required 37.9 µM.
In the case of `COc1cc(C2C3=C(CC(C)(C)CC3=O)OC(=N)C2C#N)cc2c1OCO2` (stereo unspecified) it was above 300 µM; in that of `N#CC1C(=N)OC2=C(C(=O)CCC2)C1c1ccc2c(c1)OCO2` (stereo unspecified), above 300 µM.
Under `Cc1ccc(Cl)c2c1=NC(=O)C=2NNc1ccccc1` stands above 300 µM; under `COc1cc(C2C3=C(CCCC3=O)OC(=N)C2C#N)cc2c1OCO2` (stereo unspecified), above 300 µM.
In turn, `Cc1ccc2c(c1)=C(NNc1ccccc1C)C(=O)N=2` yielded an EC50 above 300 µM.
As for `O=C1NC(=O)N(c2cccc(F)c2)C(=O)C1=Cc1c[nH]c2ccccc12`, the 50% effective concentration (EC50) was determined as 36.6 µM.
For `COc1ccccc1OCC(=O)NN=Cc1c(O)ccc2ccccc12`, a half-maximal response (EC50) required 131 µM.
`N#CCC(=N)C(C#N)C#N` [1,1,3-tricyano-2-amino-1-propene] registered an EC50 of 169 µM.
Under `O=C(NN=CC1=CC(=O)C(=O)CC1)NN=CC1=CC(=O)C(=O)CC1` [1,3-bis[[(Z)-(3-hydroxy-4-oxocyclohexa-2,5-dien-1-ylidene)methyl]amino]urea] stands 4.86 µM.
In the case of `CCN(CC)CCN1C(=O)C(=O)C(C(=O)c2cc3cccc(OC)c3o2)C1c1ccc(F)cc1` (stereo unspecified) [1-(2-Diethylamino-ethyl)-5-(4-fluoro-phenyl)-3-hydroxy-4-(7-methoxy-benzofuran-2-carbonyl)-1,5-dihydr o-pyrrol-2-one] it was above 300 µM; in that of `C=CCOc1cccc(C2C(C(=O)c3ccco3)C(=O)C(=O)N2Cc2ccco2)c1` (stereo unspecified) [1-(2-furanylmethyl)-3-[2-furanyl(oxo)methyl]-4-hydroxy-2-(3-prop-2-enoxyphenyl)-2H-pyrrol-5-one], above 300 µM.
For the compound `O=C1Nc2ccccc2/C1=N/NC(=S)Nc1ccc(O)cc1` [1-(4-hydroxyphenyl)-3-[(2-oxidanylideneindol-3-yl)amino]thiourea], the 50% effective concentration (EC50) is 3.98 µM.
Under `C=CCOc1ccc(C2C(C(=O)c3cccs3)C(=O)C(=O)N2c2nnc(C)s2)cc1` (stereo unspecified) [1-(5-methyl-1,3,4-thiadiazol-2-yl)-4-oxidanyl-2-(4-prop-2-enoxyphenyl)-3-thiophen-2-ylcarbonyl-2H-pyrrol-5-one] stands 3.06 µM; under `COc1ccc(NC=C2C(=O)NC(=S)N(Cc3ccccc3)C2=O)c(OC)c1` [1-Benzyl-5-[1-(2,4-dimethoxy-phenylamino)-meth-(Z)-ylidene]-2-thioxo-dihydro-pyrimidine-4,6-dione], above 300 µM.
With `CSc1nncc(C(C)N=Nc2ccccc2)n1` (stereo unspecified) [1-[3-(methylsulfanyl)-1,2,4-triazin-5-yl]ethanone phenylhydrazone], the half-maximal effective concentration (EC50) was above 300 µM.
`C=CCSc1nnc(N2C(=O)C(=O)C(C(=O)c3ccco3)C2c2ccccc2F)s1` (stereo unspecified) [1-[5-(allylthio)-1,3,4-thiadiazol-2-yl]-5-(2-fluorophenyl)-4-(2-furoyl)-3-hydroxy-3-pyrrolin-2-one]: the 50% effective concentration (EC50) was 54.8 µM.
For the compound `C=CCSc1nnc(N2C(=O)C(=O)C(C(=O)c3ccco3)C2c2ccc(F)cc2)s1` (stereo unspecified) [1-[5-(allylthio)-1,3,4-thiadiazol-2-yl]-5-(4-fluorophenyl)-4-(2-furoyl)-3-hydroxy-3-pyrrolin-2-one], the concentration giving a half-maximal response (EC50) was found to be 87.6 µM.
The compound `CC(C)c1ccc(C2C(C#N)=C3Sc4ccccc4N3C(=N)C2C#N)cc1` (stereo unspecified) [1-amino-3-(4-propan-2-ylphenyl)-3H-pyrido[2,1-b][1,3]benzothiazole-2,4-dicarbonitrile] gave a half-maximal effective concentration (EC50) of 61.3 µM.
For `CC1(C)CC(=O)C2Sc3ccccc3N=C2C1` (stereo unspecified) [2,2-Dimethyl-2,3-dihydro-1H,10H-phenothiazin-4-one], the EC50 was 59.3 µM.
Take `COc1cccc(C2C(C(=O)c3cc4cccc(OC)c4o3)C(=O)C(=O)N2c2cc(C)on2)c1OC` (stereo unspecified) [2-(2,3-dimethoxyphenyl)-3-[(7-methoxy-1-benzofuran-2-yl)carbonyl]-1-(5-methyl-1,2-oxazol-3-yl)-4-oxidanyl-2H-pyrrol-5-one]: the half-maximal effective concentration (EC50) was above 300 µM.
`COc1ccc(OC)c(C2C(C(=O)c3ccco3)C(=O)C(=O)N2CCN2CCOCC2)c1` (stereo unspecified) [2-(2,5-dimethoxyphenyl)-3-(furan-2-carbonyl)-4-hydroxy-1-(2-morpholin-4-ylethyl)-2H-pyrrol-5-one] showed an EC50 above 300 µM.
Under `COc1cccc(C2C3=C(CCCC3=O)OC(=N)C2C#N)c1OC(=O)c1ccco1` (stereo unspecified) [2-(2-amino-3-cyano-5-oxo-5,6,7,8-tetrahydro-4H-chromen-4-yl)-6-methoxyphenyl 2-furoate] stands above 300 µM; under `CC1(C)CC(=O)C2=C(C1)OC(=N)C(C#N)C2c1ccccc1OC(=O)N1CCOCC1` (stereo unspecified) [2-(2-amino-3-cyano-7,7-dimethyl-5-oxo-5,6,7,8-tetrahydro-4H-chromen-4-yl)phenyl morpholine-4-carboxylate], above 300 µM; under `CCCSc1nnc(N2C(=O)C(=O)C(C(=O)c3ccco3)C2c2ccccc2F)s1` (stereo unspecified) [2-(2-fluorophenyl)-3-(furan-2-carbonyl)-4-hydroxy-1-(5-propylsulfanyl-1,3,4-thiadiazol-2-yl)-2H-pyrrol-5-one], above 300 µM.
As to `COc1ccc(C2C(C(=O)c3cccs3)C(=O)C(=O)N2c2nnc(C)s2)cc1OC` (stereo unspecified) [2-(3,4-dimethoxyphenyl)-1-(5-methyl-1,3,4-thiadiazol-2-yl)-4-oxidanyl-3-thiophen-2-ylcarbonyl-2H-pyrrol-5-one], the concentration giving a half-maximal response (EC50) stood at 5.19 µM.
Under `COc1ccc(C2C(C(=O)c3ccco3)C(=O)C(=O)N2c2nnc(C)s2)cc1OC` (stereo unspecified) [2-(3,4-dimethoxyphenyl)-3-(furan-2-carbonyl)-4-hydroxy-1-(5-methyl-1,3,4-thiadiazol-2-yl)-2H-pyrrol-5-one] stands 297 µM; under `Cc1ccc(C(=O)C2C(=O)C(=O)N(Cc3ccco3)C2c2cccc(Br)c2)o1` (stereo unspecified) [2-(3-bromophenyl)-1-(2-furanylmethyl)-4-hydroxy-3-[(5-methyl-2-furanyl)-oxomethyl]-2H-pyrrol-5-one], 35.6 µM.
`CCCCOc1cccc(C2C(C(=O)c3ccc(C)o3)C(=O)C(=O)N2c2nnc(C)s2)c1` (stereo unspecified) [2-(3-butoxyphenyl)-3-(5-methylfuran-2-yl)carbonyl-1-(5-methyl-1,3,4-thiadiazol-2-yl)-4-oxidanyl-2H-pyrrol-5-one] yielded an EC50 of 77.4 µM.
In the case of `CSc1nnc(N2C(=O)C(=O)C(C(=O)c3ccco3)C2c2cccc(Cl)c2)s1` (stereo unspecified) [2-(3-chlorophenyl)-3-(furan-2-carbonyl)-4-hydroxy-1-(5-methylsulfanyl-1,3,4-thiadiazol-2-yl)-2H-pyrrol-5-one] it was 14.3 µM; in that of `CCOc1cccc(C2C(C(=O)c3ccc(C)o3)C(=O)C(=O)N2c2nccs2)c1` (stereo unspecified) [2-(3-ethoxyphenyl)-3-(5-methylfuran-2-yl)carbonyl-4-oxidanyl-1-(1,3-thiazol-2-yl)-2H-pyrrol-5-one], 1.27 µM; in that of `Cc1cccc(Nc2nc(O)cs2)c1` [2-(3-methylanilino)-1,3-thiazol-4-one], above 300 µM.
Compound `COCCNC(=O)Cn1cc(C=C2C(=O)NC(=O)N(c3ccccc3F)C2=O)c2ccccc21` [2-(3-{(E)-[1-(2-fluorophenyl)-2,4,6-trioxotetrahydropyrimidin-5(2H)-ylidene]methyl}-1H-indol-1-yl)-N-(2-methoxyethyl)acetamide] came in with an EC50 of 8.13 µM.
On to `Cc1nnc(N2C(=O)C(=O)C(C(=O)c3ccco3)C2c2ccc(F)cc2)s1` (stereo unspecified) [2-(4-fluorophenyl)-3-(furan-2-carbonyl)-4-hydroxy-1-(5-methyl-1,3,4-thiadiazol-2-yl)-2H-pyrrol-5-one], for which the EC50 was found to be 32.9 µM.
In turn, `CSc1nnc(N2C(=O)C(=O)C(C(=O)c3ccco3)C2c2ccc(F)cc2)s1` (stereo unspecified) [2-(4-fluorophenyl)-3-(furan-2-carbonyl)-4-hydroxy-1-(5-methylsulfanyl-1,3,4-thiadiazol-2-yl)-2H-pyrrol-5-one] showed a concentration for a half-maximal effect (EC50) of 82.8 µM.
In the case of `Cc1[nH]c2ccccc2c1/C=C1\N=C(c2ccc(F)cc2)OC1=O` [2-(4-fluorophenyl)-4-[(2-methyl-1H-indol-3-yl)methylene]-1,3-oxazol-5(4H)-one] it was 5.53 µM.
